Measured values published in article PMC6273229, “Imidazopyranotacrines as Non-Hepatotoxic, Selective Acetylcholinesterase Inhibitors, and Antioxidant Agents for Alzheimer′s Disease Therapy” (Molecules, 2016).
≈ marks a conversion by molar mass, not a printed value. Where “and” joins values, the source holds several entries; their conditions need not be identical. Equal values may be shown once. Entries after “also recorded” stand apart in the source; their conditions may differ. Read-outs that look alike come from different tables or passages of the source.

Experiments:
[1] = molecular target: AChE from Electrophorus electricus (EeAChE) (Electrophorus electricus, UniProt O42275); assay: physchem; conditions: for solubility: pH 8
Method: The inhibitory activity on AChE from Electrophorus electricus (type VI-S, Sigma, Milan, Italy), was evaluated spectrophotometrically by the method of Ellman et al.. AChE stock solution was prepared by dissolving EeAChE lyophilized powder (Sigma) in 0.1 M phosphate buffer (pH = 8.0) containing 0.1% Triton X-100. Stock solutions of the tested compounds (1 mM) were prepared in MeOH/H2O 50/50 (v/v) and diluted in MeOH/H2O 50/50 (v/v). […] Assay solutions with and without inhibitor were preincubated at 37 °C for 20 min followed by the addition of substrate. Blank solutions containing all components except EeAChE were prepared in parallel to account for the non-enzymatic hydrolysis of the substrate. Initial rate assays were performed at 37 °C with a Jasco V-530 double beam spectrophotometer. […] The velocity in the presence and absence of inhibitor were compared and % inhibition was calculated. The results were plotted by placing the percentage of inhibition in function of the decimal log of the final inhibitor concentration. Linear regression and IC50 values were calculated using Microcal Origin 3.5 software (Microcal Software, […]).

[2] = Oxygen radical absorbance capacity by fluorescence (ORAC-FL); conditions: Trolox equivalents, mean ± SD
Method: The antioxidant power of the imidazopyranotacrines 1–13 was determined by the oxygen radical absorbance capacity by fluorescence (ORAC-FL) method using fluorescein as fluorescent probe and Trolox (6-hydroxy-2,5,7,8-tetramethylchroman-2-carboxylic acid) as a reference compound. Results are expressed as Trolox equivalents (μmol Trolox per μmol test compound).
The radical scavenging activity of imidazopyranotacrines 1–13 was determined by the ORAC-FL method using a Varioskan Flash plate reader with built-in injectors (Thermo Scientific). Trolox, 2,2′-azobis(amidinopropane) dihydrochloride (AAPH) and fluorescein (FL) were purchased from Sigma-Aldrich. The reaction was performed at 37 °C in 75 mM phosphate buffer (pH = 7.4), and the final volume reaction mixture was 200 µL. The final concentrations were 1–8 µM for Trolox and 0.1–1 µM for the tested compounds. Briefly, in a black 96-well microplate (Nunc), antioxidant (20 µL) and fluorescein (120 µL) were incubated for 15 min at 37 °C. Then, 2,2′-azobis(amidinopropane) dihydrochloride (60 µL) was added using the built-in injector. […] All assays were made in triplicate and at least three different assays were performed for each sample.
The net AUC corresponding to a sample was calculated as follows: Net AUC = AUCantioxidant − AUCblank(2)
Regression equations were calculated by plotting the net AUC against the antioxidant concentration. The ORAC value was obtained by dividing the slope of the latter curve by the slope of the Trolox curve obtained in the same assay. ORAC values was expressed as µmol of Trolox equivalent/µmol of imidazopyranotacrines. Data are expressed as mean ± SD.

[3] = molecular target: T1, BuChE from horse serum (eqBuChE) (Equus caballus, UniProt P81908); assay: biochemical; conditions: mean ± SEM
T1 construct: BuChE from horse serum (lyophilized powder, Sigma-Aldrich); purchased Sigma-Aldrich; host or cells: horse serum
Method: The % inhibitory activity on BuChE from horse serum (lyophilized powder, Sigma-Aldrich), was evaluated spectrophotometrically by the method of Ellman et al.. BuChE stock solutions were first dissolved in 0.1 M phosphate buffer (pH 8.0) and then aliquoted in small vials. Compounds were dissolved in DMSO at 10 mM. The reaction was carried out in a final volume of 3 mL of a 0.1 M phosphate-buffered solution at pH 8.0, containing 5,5′-dithiobis-2-nitrobenzoic acid (DTNB, 2625 µL, 0.35 mM, final concentration), eqBuChE (60 µL, 0.05 U/mL final concentration), tested compound (3 µL, 10 µM, final concentration) and 1% w/v Bovine Serum Albumin phosphate-buffered (pH 8.0) solution (BSA, 40 µL). The inhibition with respect to control without compound was determined by pre-incubating this mixture at rt with each compound for 10 min. After this period, butyrylthiocholine iodide (150 µL, 0.5 mM final concentration) was added and incubated for 15 min at rt.

[4] = tested on: HepG2 cells; type: cell-based; conditions: for Cell viability (MTT reduction, % control): 24 h, mean ± S.E.M.; for hepatotoxicity on HepG2 cells (in words): cell viability assay, 1–1000 µM
Method: The human hepatoma HepG2 line cells were purchased from American Type Culture Collection. The cells were cultured in Eagle’s Minimum Essential Medium (Ozyme, Montigny-le-Bretonneux, France) supplemented with 10% fetal bovine serum, 1X non-essential amino acids, 100 units/mL penicillin and […] streptomycin (Dutscher, Brumath, France). […] Prior to the experiment, cells were seeded in 96-well culture plates at a density of 0.1 × 10^6 cells per well. After 24 h of incubation, the culture medium was refreshed and 100 µL of the test compounds or DMSO (0.1%) were added. Compounds were tested at 7 concentrations (1–1000 µM) in triplicate.
Cell viability, measured as the mitochondrial activity of living cells, was determined by quantitative colorimetric assay with 3-[4,5 dimethylthiazol-2-yl]-2,5-diphenyl-tetrazolium bromide (MTT). Briefly, after 24 h of treatment, cells were incubated with 50 µL MTT (0.5 mg/mL, Sigma Aldrich) at 37 °C for 2 h. Plates were centrifuged, MTT was removed and 100 µL DMSO was distributed per well. The absorbance was read at 570 nm by microplate spectrophotometry. Cell viability was expressed as percentage over controls (DMSO, 0.1%).

[5] = read-out: EeAChE % inhibition at the highest concentration

T1 sequence (P81908 whole entry): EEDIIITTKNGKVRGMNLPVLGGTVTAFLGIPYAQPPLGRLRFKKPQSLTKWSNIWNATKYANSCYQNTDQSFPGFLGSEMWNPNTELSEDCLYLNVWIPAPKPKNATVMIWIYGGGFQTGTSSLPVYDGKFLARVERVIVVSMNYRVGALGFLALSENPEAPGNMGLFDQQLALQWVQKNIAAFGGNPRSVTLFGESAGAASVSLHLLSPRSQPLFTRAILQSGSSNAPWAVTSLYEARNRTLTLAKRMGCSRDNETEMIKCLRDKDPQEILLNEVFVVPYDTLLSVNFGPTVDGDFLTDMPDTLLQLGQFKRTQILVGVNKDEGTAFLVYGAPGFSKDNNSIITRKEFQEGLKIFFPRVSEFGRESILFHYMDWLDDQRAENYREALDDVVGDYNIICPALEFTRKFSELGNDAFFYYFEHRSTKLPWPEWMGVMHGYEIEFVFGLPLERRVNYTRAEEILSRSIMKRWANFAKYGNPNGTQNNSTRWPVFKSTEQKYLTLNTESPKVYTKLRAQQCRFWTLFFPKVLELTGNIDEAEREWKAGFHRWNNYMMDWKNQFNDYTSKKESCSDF
AChE from Electrophorus electricus (EeAChE), sequence (O42275 24-633): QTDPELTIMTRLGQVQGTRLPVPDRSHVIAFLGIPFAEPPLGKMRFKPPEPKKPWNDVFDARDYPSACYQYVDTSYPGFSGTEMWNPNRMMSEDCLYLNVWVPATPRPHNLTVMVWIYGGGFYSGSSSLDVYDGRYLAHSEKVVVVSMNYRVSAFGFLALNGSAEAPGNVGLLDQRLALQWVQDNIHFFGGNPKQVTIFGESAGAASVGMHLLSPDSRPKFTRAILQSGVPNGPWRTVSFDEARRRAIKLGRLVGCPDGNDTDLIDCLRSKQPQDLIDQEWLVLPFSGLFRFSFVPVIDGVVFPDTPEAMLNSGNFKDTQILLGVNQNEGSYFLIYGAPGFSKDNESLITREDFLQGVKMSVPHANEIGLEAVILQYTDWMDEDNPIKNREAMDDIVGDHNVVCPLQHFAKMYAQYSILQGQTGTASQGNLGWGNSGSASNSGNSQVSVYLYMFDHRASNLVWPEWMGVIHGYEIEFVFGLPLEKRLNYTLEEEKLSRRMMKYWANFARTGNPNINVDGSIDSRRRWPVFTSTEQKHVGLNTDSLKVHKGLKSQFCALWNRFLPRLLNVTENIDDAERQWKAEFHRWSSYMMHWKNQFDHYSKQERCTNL

Row | Compound | ORAC [2] | inhibition at 10 µM [3] [%] | IC50 [1] [µM] | further results
1 | Cn1ccnc1C1c2c(nc3c(c2N)CCCCC3)Oc2ccc3ccccc3c21 (centres unmarked) [Compound 9, 15-(1-Methyl-1H-imidazol-2-yl)-9,10,11,12,13,15-hexahydrobenzo[5,6]chromeno[2,3-b]cyclohepta[e]pyridin-14-amine] | 1.35 ± 0.13 µmol Trolox/µmol compound | 15.1 ± 4.7 |  | solubility [1]: 15 µM (≈ 5.95 µg/mL); inhibition at 15 µM [1, 5]: < 15%
2 | CCOC(=O)C1=C(C)Oc2nc3c(c(N)c2C1c1nccn1C)CCCCC3 (centres unmarked) [Compound 3, Ethyl 5-amino-2-methyl-4-(1-methyl-1H-imidazol-2-yl)-4,6,7,8,9,10-hexahydrocyclohepta[b]pyrano[3,2-e]pyridine-3-carboxylate] | 1.99 ± 0.23 µmol Trolox/µmol compound | 32.2 ± 0.9 | 432 ± 84 | 
3 | Cn1ccnc1C1c2ccc3cccnc3c2Oc2nc3c(c(N)c21)CCC3 (centres unmarked) [Compound 12, 7-(1-Methyl-1H-imidazol-2-yl)-7,9,10,11-tetrahydrocyclopenta[5′,6′]pyrido[3′,2′:5,6]pyrano[3,2-h]quinolin-8-amine] | 1.88 ± 0.07 µmol Trolox/µmol compound | 27.5 ± 1.1 | 15.3 ± 0.6 | 
4 | Cn1ccnc1C1C2=C(CC(C)(C)CC2=O)Oc2nc3c(c(N)c21)CCCC3 (centres unmarked) [Compound 6, 11-Amino-3,3-dimethyl-12-(1-methyl-1H-imidazol-2-yl)-2,3,4,7,8,9,10,12-octahydro-1H-chromeno[2,3-b]quinolin-1-one] | 2.34 µmol Trolox/µmol compound and 2.34 ± 0.31 µmol Trolox/µmol compound | 33.5 ± 1.7 | 37.8 ± 1.2 | 
5 | Cn1ccnc1C1C2=C(CC(C)(C)CC2=O)Oc2nc3c(c(N)c21)CCC3 (centres unmarked) [Compound 5, 11-Amino-7,7-dimethyl-10-(1-methyl-1H-imidazol-2-yl)-2,3,6,7,8,10-hexahydrochromeno[2,3-b]cyclopenta[e]pyridin-9(1H)-one] | 1.70 ± 0.33 µmol Trolox/µmol compound | 12.9 ± 0.5 | 158 ± 33 | 
6 | Cn1ccnc1C1c2ccc3ccccc3c2Oc2nc3c(c(N)c21)CCCCC3 (centres unmarked) [Compound 11, 7-(1-Methyl-1H-imidazol-2-yl)-7,9,10,11,12,13-hexahydrobenzo[7,8]chromeno[2,3-b]cyclohepta[e]pyridin-8-amine] | 2.33 µmol Trolox/µmol compound and 2.33 ± 0.13 µmol Trolox/µmol compound | 20.3 ± 3.7 |  | solubility [1]: 25 µM (≈ 9.91 µg/mL); inhibition at 25 µM [1, 5]: < 15%
7 | Cn1ccnc1C1c2c(nc3c(c2N)CCC3)Oc2ccc3ccccc3c21 (centres unmarked) [Compound 7, 13-(1-Methyl-1H-imidazol-2-yl)-9,10,11,13-tetrahydrobenzo[5,6]chromeno[2,3-b]cyclopenta[e]pyridin-12-amine] | 1.47 ± 0.13 µmol Trolox/µmol compound | 50.5 ± 7.3 | 8.41 ± 0.14 | 
8 | CC(=O)C1=C(C)Oc2nc3c(c(N)c2C1c1nccn1C)CCCC3 (centres unmarked) [Compound 4, 1-(5-Amino-2-methyl-4-(1-methyl-1H-imidazol-2-yl)-6,7,8,9-tetrahydro-4H-pyrano[2,3-b]quinolin-3-yl)ethan-1-one] | 2.31 µmol Trolox/µmol compound and 2.31 ± 0.29 µmol Trolox/µmol compound | 24.9 ± 0.9 | 38.7 ± 1.7 | Cell viability (MTT reduction, % control) ([4]; HepG2, 1 µM): 107.7 ± 5.1 % control; Cell viability (MTT reduction, % control) ([4]; HepG2, 3 µM): 105.3 ± 2.9 % control; Cell viability (MTT reduction, % control) ([4]; HepG2, 10 µM): 102.1 ± 2.9 % control; Cell viability (MTT reduction, % control) ([4]; HepG2, 30 µM): 98.0 ± 3.1 % control; Cell viability (MTT reduction, % control) ([4]; HepG2, 100 µM): 104.6 ± 4.5 % control; Cell viability (MTT reduction, % control) ([4]; HepG2, 300 µM): 97.1 ± 3.0 % control; Cell viability (MTT reduction, % control) ([4]; HepG2, 1000 µM): 96.8 ± 1.5 % control; hepatotoxicity on HepG2 cells (in words) [4]: non-hepatotoxic; also recorded: safe even at 300 µM; also recorded: non-toxic even at the highest tested concentration; also recorded: lack of hepatotoxicity even at very high concentration
9 | CCOC(=O)C1=C(C)Oc2nc3c(c(N)c2C1c1nccn1C)CCCC3 (centres unmarked) [Compound 2, Ethyl 5-amino-2-methyl-4-(1-methyl-1H-imidazol-2-yl)-6,7,8,9-tetrahydro-4H-pyrano[2,3-b]quinoline-3-carboxylate] | 1.79 ± 0.17 µmol Trolox/µmol compound | 34 ± 0.5 | 11.5 ± 0.4 | Cell viability (MTT reduction, % control) ([4]; HepG2, 1 µM): 102.7 ± 3.7 % control; Cell viability (MTT reduction, % control) ([4]; HepG2, 3 µM): 103.2 ± 4.4 % control; Cell viability (MTT reduction, % control) ([4]; HepG2, 10 µM): 101.3 ± 3.9 % control; Cell viability (MTT reduction, % control) ([4]; HepG2, 30 µM): 99.2 ± 2.6 % control; Cell viability (MTT reduction, % control) ([4]; HepG2, 100 µM): 93.0 ± 4.7 % control; Cell viability (MTT reduction, % control) ([4]; HepG2, 300 µM): 87.5 ± 3.2 % control; Cell viability (MTT reduction, % control) ([4]; HepG2, 1000 µM): 58.8 ± 2.1 % control; hepatotoxicity on HepG2 cells (in words) [4]: safe even at 300 µM
10 | CCOC(=O)C1=C(C)Oc2nc3c(c(N)c2C1c1nccn1C)CCC3 (centres unmarked) [Compound 1, Ethyl 5-amino-2-methyl-4-(1-methyl-1H-imidazol-2-yl)-4,6,7,8-tetrahydrocyclopenta[b]pyrano[3,2-e]pyridine-3-carboxylate] | 0.34 ± 0.03 µmol Trolox/µmol compound | 25.6 ± 0.7 | 12.9 ± 0.3 | 
11 | Cn1ccnc1C1c2ccc3cccnc3c2Oc2nc3c(c(N)c21)CCCCC3 (centres unmarked) [Compound 13, 7-(1-Methyl-1H-imidazol-2-yl)-7,9,10,11,12,13-hexahydrocyclohepta[5′,6′]pyrido[3′,2′:5,6]pyrano[3,2-h]quinolin-8-amine] | 2.25 µmol Trolox/µmol compound and 2.25 ± 0.29 µmol Trolox/µmol compound | 75.7 ± 2.3 | 30 ± 2 | 
12 | 7-(1-Methyl-1H-imidazol-2-yl)-9,10,11,12-tetrahydro-7H-benzo[7,8]chromeno[2,3-b]quinolin-8-amine [Compound 10] | 2.75 ± 0.09 µmol Trolox/µmol compound |  |  | IC50 ([1]; read-out: EeAChE IC50 Values, mean ± SEM): 10.7 ± 0.2 µM; eqBuChE % Inhibition at 10 μM [3]: 25.0 ± 0.2%; Cell viability (MTT reduction, % control) ([4]; HepG2, 1 µM): 101.8 ± 4.2 % control; Cell viability (MTT reduction, % control) ([4]; HepG2, 3 µM): 100.7 ± 2.6 % control; Cell viability (MTT reduction, % control) ([4]; HepG2, 10 µM): 100.5 ± 1.9 % control; Cell viability (MTT reduction, % control) ([4]; HepG2, 30 µM): 71.4 ± 7.4 % control; Cell viability (MTT reduction, % control) ([4]; HepG2, 100 µM): 63.5 ± 6.2 % control; Cell viability (MTT reduction, % control) ([4]; HepG2, 300 µM): 64.8 ± 5.7 % control; Cell viability (MTT reduction, % control) ([4]; HepG2, 1000 µM): 66.8 ± 4.1 % control; hepatotoxicity on HepG2 cells (in words) [4]: more toxic than tacrine
